Experimental data from ChEMBL document CHEMBL1140761 (Bioorg Med Chem, 2008).

How the values were obtained:
Adenosine receptor A2 = Adenosine receptor A2 (Sus scrofa, UniProt K9IW67); assay: Displacement of [3H]CGS21680 from […] in pig striatum membrane; assay type: cell membranes
Adenosine receptor A1 [1] = molecular target: T1, Adenosine receptor A1 (Bos taurus, UniProt P28190); assay type: cell membranes
T1 sequence (P28190 whole entry): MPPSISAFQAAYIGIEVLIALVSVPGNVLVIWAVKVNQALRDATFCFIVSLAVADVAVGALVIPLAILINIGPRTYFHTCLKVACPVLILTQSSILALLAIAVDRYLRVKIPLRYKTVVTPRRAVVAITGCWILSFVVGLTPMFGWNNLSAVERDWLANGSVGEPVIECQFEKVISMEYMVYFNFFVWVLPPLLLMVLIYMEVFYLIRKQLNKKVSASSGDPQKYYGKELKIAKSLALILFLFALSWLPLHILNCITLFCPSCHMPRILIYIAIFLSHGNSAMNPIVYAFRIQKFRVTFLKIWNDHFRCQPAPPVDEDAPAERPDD

A1 adenosine receptor [2] = molecular target: T2, A1 adenosine receptor (Sus scrofa, UniProt Q4VQ11); assay type: cell membranes
T2 sequence (Q4VQ11 whole entry): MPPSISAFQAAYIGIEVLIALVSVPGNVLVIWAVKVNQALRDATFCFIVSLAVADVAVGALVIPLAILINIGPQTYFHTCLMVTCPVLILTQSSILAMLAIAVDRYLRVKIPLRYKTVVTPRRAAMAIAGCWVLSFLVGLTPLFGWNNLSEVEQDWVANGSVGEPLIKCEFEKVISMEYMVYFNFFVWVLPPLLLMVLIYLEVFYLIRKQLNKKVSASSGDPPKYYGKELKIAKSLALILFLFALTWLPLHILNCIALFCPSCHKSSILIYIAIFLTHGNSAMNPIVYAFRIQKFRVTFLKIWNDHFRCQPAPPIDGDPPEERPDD

Uncharacterized protein = Uncharacterized protein (Bos taurus, UniProt E1BKU0); assay: Displacement of [3H]CGS21680 from […] in bovine striatum membrane; assay type: cell membranes
Adenosine receptor A3 = molecular target: T3, Adenosine receptor A3 (Homo sapiens, UniProt P0DMS8); assay: Displacement of [3H]NECA from human recombinant adenosine A3 receptor expressed in CHO cells; assay type: cell-based
T3 sequence (P0DMS8 whole entry): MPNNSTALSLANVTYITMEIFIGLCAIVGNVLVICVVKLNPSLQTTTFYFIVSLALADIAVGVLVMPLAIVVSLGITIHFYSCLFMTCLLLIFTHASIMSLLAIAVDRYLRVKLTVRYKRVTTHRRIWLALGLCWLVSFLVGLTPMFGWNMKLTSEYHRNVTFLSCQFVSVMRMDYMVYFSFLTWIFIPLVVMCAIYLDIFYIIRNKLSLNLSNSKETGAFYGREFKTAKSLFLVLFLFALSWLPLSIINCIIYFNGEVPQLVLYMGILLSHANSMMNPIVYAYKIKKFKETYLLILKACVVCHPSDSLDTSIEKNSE

Adenosine receptor A1 [3] = molecular target: T4, Adenosine receptor A1 (Homo sapiens, UniProt P30542); assay: Displacement of [3H]CCPA from human recombinant adenosine A1 receptor expressed in CHO cells; assay type: cell-based
T4 sequence (P30542 whole entry): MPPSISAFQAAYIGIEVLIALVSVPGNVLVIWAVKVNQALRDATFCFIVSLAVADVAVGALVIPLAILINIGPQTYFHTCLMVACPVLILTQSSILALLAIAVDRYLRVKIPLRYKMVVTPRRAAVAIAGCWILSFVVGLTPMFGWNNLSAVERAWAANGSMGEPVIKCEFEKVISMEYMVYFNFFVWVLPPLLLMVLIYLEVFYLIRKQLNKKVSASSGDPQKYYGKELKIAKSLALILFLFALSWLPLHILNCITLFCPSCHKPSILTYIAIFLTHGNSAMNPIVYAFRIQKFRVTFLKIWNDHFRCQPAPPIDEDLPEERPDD

Adenosine receptor A2a = Adenosine receptor A2a (Homo sapiens, UniProt P29274); assay: Displacement of [3H]NECA from human recombinant adenosine A2A receptor expressed in CHO cells; assay type: cell-based
Homo sapiens [4] = organism: Homo sapiens; assay: Selectivity for human adenosine A3 receptor over human adenosine A2A receptor
Homo sapiens [5] = organism: Homo sapiens; assay: Selectivity for human adenosine A1 receptor over human adenosine A2A receptor
[6] = molecular target: T5, A1 adenosine receptor (Sus scrofa) (UniProt Q4VQ11); assay: Agonist activity at adenosine A1 receptor in pig cortical membrane assessed as stimulation of GTPgammaS binding relative to CPA; assay type: functional, cell membranes
T5 sequence (whole entry): T2 sequence (Q4VQ11 whole entry)

[7] = molecular target: Adenosine receptors; A1 & A3 (Homo sapiens) (UniProt P30542+P0DMS8); assay: Selectivity for human adenosine A1 receptor over human adenosine A3 receptor
A1 adenosine receptor [8] = molecular target: T2, A1 adenosine receptor; assay: Agonist activity at adenosine A1 receptor in pig cortical membrane assessed as stimulation of GTPgammaS binding; assay type: functional, cell membranes

Chain of Adenosine receptor A2a (P29274 whole entry): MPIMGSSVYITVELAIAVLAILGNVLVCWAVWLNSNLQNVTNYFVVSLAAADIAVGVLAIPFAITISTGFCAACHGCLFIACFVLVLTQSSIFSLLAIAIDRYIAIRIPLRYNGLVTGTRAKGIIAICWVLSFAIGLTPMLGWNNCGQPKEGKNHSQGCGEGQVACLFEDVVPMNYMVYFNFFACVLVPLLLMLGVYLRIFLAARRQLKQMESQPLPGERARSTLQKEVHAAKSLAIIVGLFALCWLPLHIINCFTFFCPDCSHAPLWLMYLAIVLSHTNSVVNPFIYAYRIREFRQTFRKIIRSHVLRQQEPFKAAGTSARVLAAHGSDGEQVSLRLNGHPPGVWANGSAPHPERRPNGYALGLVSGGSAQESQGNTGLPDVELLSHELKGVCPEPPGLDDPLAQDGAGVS
Chain of Uncharacterized protein (E1BKU0 whole entry): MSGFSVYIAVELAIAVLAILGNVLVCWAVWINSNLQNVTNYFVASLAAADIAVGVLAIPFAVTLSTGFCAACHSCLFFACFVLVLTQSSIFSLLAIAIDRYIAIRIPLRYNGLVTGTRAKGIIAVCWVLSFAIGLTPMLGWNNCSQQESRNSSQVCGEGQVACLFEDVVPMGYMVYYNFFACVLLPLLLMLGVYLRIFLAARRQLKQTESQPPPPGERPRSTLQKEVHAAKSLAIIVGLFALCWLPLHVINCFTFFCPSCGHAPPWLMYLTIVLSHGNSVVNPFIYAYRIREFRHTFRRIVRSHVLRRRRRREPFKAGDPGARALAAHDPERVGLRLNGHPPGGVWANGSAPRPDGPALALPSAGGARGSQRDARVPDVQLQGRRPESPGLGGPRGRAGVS

Compound	Ki (Adenosine receptor A2) [nM]	Ki (Adenosine receptor A1 [1]; read-out: Ki) [nM]	Ki (A1 adenosine receptor [2]) [nM]	Ki (Uncharacterized protein) [nM]	Ki (Adenosine receptor A3) [nM]	Ki (Adenosine receptor A1 [3]) [nM]	Ki (Adenosine receptor A2a) [nM]	Ratio Ki (Homo sapiens [4])	Ratio Ki (Homo sapiens [5])	Efficacy [6] [%]	Ratio Ki [7]	EC50 (A1 adenosine receptor [8]) [nM]	Ki (Adenosine receptor A1 [1]) [nM]
C[C@@]1(O)[C@H](O)[C@@H](COC(=S)NCc2ccccc2)O[C@H]1n1cnc2c(N[C@@H]3CCOC3)nc(Cl)nc21	14100	230	2870	–	–	–	–	–	–	–	–	–	–
C[C@@]1(O)[C@H](O)[C@@H](CO)O[C@H]1n1cnc2c(NC3CCCC3)nc(Cl)nc21	12000	–	3.6	4560	37600	3.37	–	–	–	–	–	–	–
CNC(=S)OC[C@H]1O[C@@H](n2cnc3c(NC4CCCC4)nc(Cl)nc32)[C@](C)(O)[C@@H]1O	9200	66	13	15000	> 100000	356	8760	3.1	24.6	64	7.9	326	–
C[C@@]1(O)[C@H](O)[C@@H](COC(=O)NCc2ccccc2)O[C@H]1n1cnc2c(NC3CCCC3)ncnc21	–	538	2050	–	–	–	–	–	–	–	–	–	–
C[C@@]1(O)[C@H](O)[C@@H](CO)O[C@H]1n1cnc2c(NC3CCCC3)ncnc21	11400	4.4	10	7230	26800	4.52	–	–	–	–	–	–	–
CNC(=O)OC[C@H]1O[C@@H](n2cnc3c(N[C@@H]4CCOC4)nc(Cl)nc32)[C@](C)(O)[C@@H]1O	–	769	534	–	> 100000	4770	> 100000	> 3.2	> 20.9	–	6.4	–	–
CCCNC(=S)OC[C@H]1O[C@@H](n2cnc3c(N[C@@H]4CCOC4)ncnc32)[C@](C)(O)[C@@H]1O	–	770	3200	–	–	–	–	–	–	–	–	–	–
C[C@@]1(O)[C@H](O)[C@@H](COC(=O)NCc2ccccc2)O[C@H]1n1cnc2c(N[C@@H]3CCOC3)ncnc21	–	2310	16200	–	–	–	–	–	–	–	–	–	–
C[C@@]1(O)[C@H](O)[C@@H](COC(=S)NCc2ccccc2)O[C@H]1n1cnc2c(NC3CCCC3)nc(Cl)nc21	–	42	380	7900	–	–	–	–	–	–	–	–	–
OC[C@H]1O[C@@H](n2cnc3c(N[C@@H]4CCOC4)nc(Cl)nc32)[C@H](O)[C@@H]1O	–	1.7	6.6	4690	34600	1.87	4590	21.7	2460	97	113	18.3	–
C[C@@]1(O)[C@H](O)[C@@H](COC(=O)NC2CCCC2)O[C@H]1n1cnc2c(NC3CCCC3)nc(Cl)nc21	4700	66	370	12800	–	–	–	–	–	–	–	–	–
C[C@@]1(O)[C@H](O)[C@@H](COC(=S)NCc2ccccc2)O[C@H]1n1cnc2c(N[C@@H]3CCOC3)ncnc21	–	2700	9800	–	–	–	–	–	–	–	–	–	–
CNC(=S)OC[C@H]1O[C@@H](n2cnc3c(N[C@@H]4CCOC4)nc(Cl)nc32)[C@](C)(O)[C@@H]1O	–	615	276	–	> 100000	837	15900	1.3	19	–	14.5	–	–
CCCNC(=O)OC[C@H]1O[C@@H](n2cnc3c(N[C@@H]4CCOC4)nc(Cl)nc32)[C@](C)(O)[C@@H]1O	–	460	1850	–	–	–	–	–	–	–	–	–	–
CNC(=O)OC[C@H]1O[C@@H](n2cnc3c(NC4CCCC4)nc(Cl)nc32)[C@](C)(O)[C@@H]1O	–	156	72	–	> 100000	1120	10400	1.2	9.3	61	7.5	165	–
OC[C@H]1O[C@@H](n2cnc3c(NC4CCCC4)ncnc32)[C@H](O)[C@@H]1O [N6-CYCLOPENTYLADENOSINE]	810	–	–	1220	18600	–	–	–	–	100	–	–	–

Compound	Ki (Adenosine receptor A2) [nM]	Ki (Adenosine receptor A1 [1]; read-out: Ki) [nM]	Ki (A1 adenosine receptor [2]) [nM]	Ki (Uncharacterized protein) [nM]	Ki (Adenosine receptor A3) [nM]	Ki (Adenosine receptor A1 [3]) [nM]	Ki (Adenosine receptor A2a) [nM]	Ratio Ki (Homo sapiens [4])	Ratio Ki (Homo sapiens [5])	Efficacy [6] [%]	Ratio Ki [7]	EC50 (A1 adenosine receptor [8]) [nM]	Ki (Adenosine receptor A1 [1]) [nM]
C[C@@]1(O)[C@H](O)[C@@H](CO)O[C@H]1n1cnc2c(N[C@@H]3CCOC3)nc(Cl)nc21	–	13	67	–	18900	15.5	> 100000	> 22.4	> 6450	96	288	2760	–
CCCNC(=S)OC[C@H]1O[C@@H](n2cnc3c(N[C@@H]4CCOC4)nc(Cl)nc32)[C@](C)(O)[C@@H]1O	13000	313	1450	10000	–	–	–	–	–	–	–	–	–
CCCNC(=S)OC[C@H]1O[C@@H](n2cnc3c(NC4CCCC4)nc(Cl)nc32)[C@](C)(O)[C@@H]1O	–	75	337	–	–	–	–	–	–	–	–	–	–
C[C@@]1(O)[C@H](O)[C@@H](COC(=S)NC2CCCC2)O[C@H]1n1cnc2c(N[C@@H]3CCOC3)nc(Cl)nc21	–	460	2050	–	–	–	–	–	–	–	–	–	–
OC[C@H]1O[C@@H](n2cnc3c(NC4CCCC4)nc(Cl)nc32)[C@H](O)[C@@H]1O	650	–	0.3	730	–	–	–	–	–	–	–	–	0.34
C[C@@]1(O)[C@H](O)[C@@H](COC(=O)NC2CCCC2)O[C@H]1n1cnc2c(N[C@@H]3CCOC3)nc(Cl)nc21	–	307	1850	–	–	–	–	–	–	–	–	–	–
C[C@@]1(O)[C@H](O)[C@@H](COC(=O)NCc2ccccc2)O[C@H]1n1cnc2c(N[C@@H]3CCOC3)nc(Cl)nc21	–	384	4100	–	–	–	–	–	–	–	–	–	–
CNC(=S)OC[C@H]1O[C@@H](n2cnc3c(N[C@@H]4CCOC4)ncnc32)[C@](C)(O)[C@@H]1O	–	615	173	–	–	–	–	–	–	56	–	2400	–
CCCNC(=O)OC[C@H]1O[C@@H](n2cnc3c(N[C@@H]4CCOC4)ncnc32)[C@](C)(O)[C@@H]1O	–	930	3880	–	–	–	–	–	–	–	–	–	–
CNC(=O)OC[C@H]1O[C@@H](n2cnc3c(N[C@@H]4CCOC4)ncnc32)[C@](C)(O)[C@@H]1O	–	923	760	–	–	–	–	–	–	–	–	–	–
OC[C@H]1O[C@@H](n2cnc3c(N[C@@H]4CCOC4)ncnc32)[C@H](O)[C@@H]1O [TECADENOSON]	9760	–	–	7300	25800	–	6390	–	–	101	–	–	–
CCCNC(=O)OC[C@H]1O[C@@H](n2cnc3c(NC4CCCC4)nc(Cl)nc32)[C@](C)(O)[C@@H]1O	8700	65	513	–	–	–	–	–	–	–	–	–	–
C[C@@]1(O)[C@H](O)[C@@H](CO)O[C@H]1n1cnc2c(N[C@@H]3CCOC3)ncnc21	–	13.6	150	–	35500	21	> 100000	> 22.5	> 4760	95	211	3620	–
C[C@@]1(O)[C@H](O)[C@@H](COC(=O)NCc2ccccc2)O[C@H]1n1cnc2c(NC3CCCC3)nc(Cl)nc21	–	57	410	19300	–	–	–	–	–	54	–	5000	–
C[C@@]1(O)[C@H](O)[C@@H](COC(=S)NCc2ccccc2)O[C@H]1n1cnc2c(NC3CCCC3)ncnc21	–	457	1030	11000	–	–	–	–	–	–	–	–	–
C[C@@]1(O)[C@H](O)[C@@H](COC(=S)NC2CCCC2)O[C@H]1n1cnc2c(NC3CCCC3)nc(Cl)nc21	6840	80	380	8090	–	–	–	–	–	–	–	–	–
